Laboratory results: PubChem BioAssay (NCI)
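48-hour exposure; five concentrations; linearly interpolated endpoints. TGI marks complete inhibition of growth.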

Experiments:
Assay in all cases: inhibition of tumour cell growth, NCI panel, 48 h
A549 NSCLC = test system: A549 NSCLC
EKVX NSCLC = test system: EKVX NSCLC
COLO 205 colon = test system: COLO 205 colon
HOP-92 NSCLC = test system: HOP-92 NSCLC
PC-3 prostate = test system: PC-3 prostate
LOX IMVI melanoma = test system: LOX IMVI melanoma
HOP-62 NSCLC = test system: HOP-62 NSCLC
ACHN renal = test system: ACHN renal
HCT-15 colon = test system: HCT-15 colon
OVCAR-4 ovarian = test system: OVCAR-4 ovarian
NCI-H460 lung = test system: NCI-H460 lung
OVCAR-5 ovarian = test system: OVCAR-5 ovarian
SK-OV-3 ovarian = test system: SK-OV-3 ovarian
IGROV1 ovarian = test system: IGROV1 ovarian
NCI-H226 lung = test system: NCI-H226 lung
M14 melanoma = test system: M14 melanoma
HL-60(TB) leukemia = test system: HL-60(TB) leukemia
UO-31 renal = test system: UO-31 renal
CAKI-1 renal = test system: CAKI-1 renal

SMILES	TGI (A549 NSCLC)	TGI (EKVX NSCLC)	TGI (COLO 205 colon)	TGI (HOP-92 NSCLC)	TGI (PC-3 prostate)	TGI (LOX IMVI melanoma)	TGI (HOP-62 NSCLC)	TGI (ACHN renal)	TGI (HCT-15 colon)	TGI (OVCAR-4 ovarian)	TGI (NCI-H460 lung)	TGI (OVCAR-5 ovarian)	TGI (SK-OV-3 ovarian)	TGI (IGROV1 ovarian)	TGI (NCI-H226 lung)	TGI (M14 melanoma)	TGI (HL-60(TB) leukemia)	TGI (UO-31 renal)	TGI (CAKI-1 renal)
COc1ccc2nc3cc(Cl)ccc3c(NCCNC(=O)Cn3c(=O)n(C)c(=O)c4c3nc3c(c(=O)n(C)c(=O)n3C)[n+]4[O-])c2c1	> 100 µM	> 100 µM	> 100 µM	> 74.7 µM	> 100 µM	> 100 µM	50.8 µM	> 100 µM	> 100 µM	> 100 µM	> 100 µM	> 100 µM	> 100 µM	61.6 µM	> 80.1 µM	> 100 µM	> 100 µM	> 100 µM	> 100 µM
O=C(O)c1n[nH][nH]c1=S	> 100 µM	> 100 µM	> 100 µM	> 100 µM	> 100 µM	> 100 µM	> 100 µM	> 100 µM	> 100 µM	> 100 µM	> 100 µM	> 100 µM	> 100 µM	> 100 µM	> 100 µM	> 100 µM	> 100 µM	> 100 µM	> 100 µM
O=C(c1ccccc1)n1c(Cc2ccccc2)nc2cc(C34CC5CC(CC(C5)C3)C4)ccc21	> 100 µM	> 100 µM	58.2 µM	> 100 µM	> 100 µM	> 100 µM	> 100 µM	> 100 µM	48.5 µM	> 100 µM	> 100 µM	> 100 µM	> 100 µM	> 100 µM	> 100 µM	> 100 µM	> 100 µM	> 100 µM	> 100 µM
Fc1ccc(C(OCCN2CCN(CCCCl)CC2)c2ccc(F)cc2)cc1	> 100 µM	> 100 µM	32.7 µM	49 µM	> 100 µM	32.9 µM	> 100 µM	> 100 µM	33.8 µM	81.5 µM	55.5 µM	63.9 µM	> 100 µM	86.4 µM	40.9 µM	39.5 µM	25.6 µM	> 100 µM	> 100 µM
CC12O[C@]3([C@H](C(=O)N4CCOC43C)[C@H]1Cl)[C@H]1O[C@H]12 (some centres undefined)	> 100 µM	> 100 µM	91.9 µM	> 100 µM	> 100 µM	> 100 µM	> 100 µM	> 100 µM	> 100 µM	> 100 µM	> 100 µM	> 100 µM	> 100 µM	> 100 µM	> 100 µM	> 100 µM	> 100 µM	> 100 µM	> 100 µM
C[C@]12CC[C@@H]3c4ccc(O)cc4CC[C@H]3[C@@H]1CC[C@@H]2OP(=O)(O)O	> 100 µM	> 100 µM	> 100 µM	> 100 µM	> 100 µM	> 100 µM	> 100 µM	> 100 µM	> 100 µM	> 100 µM	> 100 µM	> 100 µM	> 100 µM	> 100 µM	> 100 µM	> 100 µM	> 100 µM	> 100 µM	> 100 µM
